Laboratory results from article PMC11869342, “Design and synthesis of novel HDAC6 inhibitor dimer as HDAC6 degrader for cancer treatment by palladium catalysed dimerisation” (Journal of Enzyme Inhibition and Medicinal Chemistry, 2025).
“Also recorded” adds a separate entry of the source. Like-named read-outs stand apart in the source and are kept apart here.

Tests used:
[1] = biological target: T1, HDAC6 (Homo sapiens, UniProt Q9UBN7); assay: HDAC enzyme activity assay (Reaction Biology), HDAC6; format: biochemical; design: Full-length recombinant hHDAC 6 was expressed in a baculovirus expression system in SF9 cells; purchased Reaction Biology Corporation (Malvern, PA); host or cells: baculovirus / SF9 insect cells; conditions: for IC50: full-length recombinant hHDAC 6, RHKKAc substrate 50 μM, 2 h at 30 °C; for HDAC1/6 Selectivity: ratio of HDAC1 IC50 to HDAC6 IC50
T1 sequence (Q9UBN7 1-1215): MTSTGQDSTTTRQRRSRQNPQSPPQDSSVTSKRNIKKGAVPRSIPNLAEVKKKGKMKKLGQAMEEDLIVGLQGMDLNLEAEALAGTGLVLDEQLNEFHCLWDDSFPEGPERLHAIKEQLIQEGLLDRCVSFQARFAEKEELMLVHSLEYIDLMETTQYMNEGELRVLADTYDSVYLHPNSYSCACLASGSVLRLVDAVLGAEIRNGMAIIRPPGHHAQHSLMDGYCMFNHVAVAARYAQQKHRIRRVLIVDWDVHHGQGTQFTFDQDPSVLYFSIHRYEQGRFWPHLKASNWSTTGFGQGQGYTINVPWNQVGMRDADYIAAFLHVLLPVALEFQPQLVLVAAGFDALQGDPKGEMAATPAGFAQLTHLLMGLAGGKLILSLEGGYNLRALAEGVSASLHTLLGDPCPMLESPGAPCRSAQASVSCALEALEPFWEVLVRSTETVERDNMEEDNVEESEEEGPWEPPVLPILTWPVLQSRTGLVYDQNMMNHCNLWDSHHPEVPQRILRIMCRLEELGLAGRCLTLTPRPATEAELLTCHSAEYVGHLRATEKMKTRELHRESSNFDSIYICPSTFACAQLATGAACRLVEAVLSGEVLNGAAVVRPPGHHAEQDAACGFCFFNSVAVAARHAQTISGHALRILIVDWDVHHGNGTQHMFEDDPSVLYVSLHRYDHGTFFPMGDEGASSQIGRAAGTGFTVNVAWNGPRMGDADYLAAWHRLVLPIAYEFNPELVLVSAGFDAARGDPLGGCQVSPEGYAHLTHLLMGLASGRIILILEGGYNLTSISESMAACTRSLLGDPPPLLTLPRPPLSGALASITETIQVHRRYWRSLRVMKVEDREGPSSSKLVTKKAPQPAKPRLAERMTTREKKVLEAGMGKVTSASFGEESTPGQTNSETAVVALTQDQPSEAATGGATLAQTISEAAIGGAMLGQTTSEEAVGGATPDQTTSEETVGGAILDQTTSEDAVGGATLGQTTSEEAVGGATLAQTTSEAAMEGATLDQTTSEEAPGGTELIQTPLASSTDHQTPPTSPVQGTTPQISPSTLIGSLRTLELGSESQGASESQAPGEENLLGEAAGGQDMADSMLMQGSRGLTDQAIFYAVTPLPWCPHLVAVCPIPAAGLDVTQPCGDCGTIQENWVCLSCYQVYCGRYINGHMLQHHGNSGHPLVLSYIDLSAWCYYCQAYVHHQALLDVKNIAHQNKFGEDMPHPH
Description: HDAC inhibition assays were performed by Reaction Biology Corporation (Malvern, PA). Full-length recombinant hHDAC 6 was expressed in a baculovirus expression system in SF9 cells. […] The reaction was stopped after 2 h at 30 °C . Trichostatin A was used as an internal control.

[2] = test system: PC-3 cells; assay: Sulforhodamine B (SRB) assay, PC-3; format: cell-based; conditions: Homo sapiens, read-out: GI50 con. ± SEM PC-3
Description: (§1) The A549 and PC-3 human lung and prostate cancer cell lines were acquired from the American Type Culture Collection (Rockville, MD). […] The cultures were kept in a 37 °C incubator with 5% CO2. When the adherent cultures reached 80% confluence, they were passaged using 0.05% trypsin-EDTA. PC-3 and A549 cells were seeded into 96-well plates in RPMI medium with 5% (v/v) foetal bovine serum for 24 h. Cells in partial wells were fixed with 10% trichloroacetic acid (TCA) to represent the initial time of compound treatment. The cells were treated with or without the indicated compound for 48 h and then were fixed with 10% TCA. After the washout with ddH2O and air-dried, SRB at 0.4% (w/v) in 1% acetic acid was added for staining. Unbound SRB was washed with 1% acetic acid and SRB-bounded cells were solubilised with 10 mM Tris base. The absorbance was read at a wavelength of 515 nm for the determination of cell growth.

[3] = test system: A549 cells; assay: Sulforhodamine B (SRB) assay, A549; format: cell-based; conditions: Homo sapiens, read-out: GI50 con. ± SEM A549
Description: as §1

[4] = biological target: T2, HDAC1 (Homo sapiens, UniProt Q13547); assay: HDAC enzyme activity assay (Reaction Biology), HDAC1; format: biochemical
T2 construct: purchased Reaction Biology Corporation (Malvern, PA)
T2 sequence (Q13547 whole entry): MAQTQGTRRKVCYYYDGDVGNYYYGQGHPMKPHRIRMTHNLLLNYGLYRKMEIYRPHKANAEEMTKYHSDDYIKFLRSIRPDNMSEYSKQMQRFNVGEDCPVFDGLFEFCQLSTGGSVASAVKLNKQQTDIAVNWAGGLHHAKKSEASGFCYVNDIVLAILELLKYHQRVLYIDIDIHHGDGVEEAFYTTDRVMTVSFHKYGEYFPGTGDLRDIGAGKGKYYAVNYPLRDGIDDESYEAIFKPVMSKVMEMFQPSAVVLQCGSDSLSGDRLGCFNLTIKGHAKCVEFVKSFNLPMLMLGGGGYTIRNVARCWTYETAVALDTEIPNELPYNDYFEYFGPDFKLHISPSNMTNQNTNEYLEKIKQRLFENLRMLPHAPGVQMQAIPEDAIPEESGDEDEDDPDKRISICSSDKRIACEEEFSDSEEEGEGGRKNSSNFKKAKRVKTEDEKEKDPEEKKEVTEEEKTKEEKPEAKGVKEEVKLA

[5] = test system: PARP-1 and Caspase-3; assay: Western blotting of apoptosis biomarkers PARP-1 and Caspase-3 in PC-3 cells; format: cell-based, human; conditions: 30 μM, 24 h
Description: (§2) Figure 3. Western blotting analysis of (a) HDAC6 protein in PC-3 cells treated with various dimer compounds at 30 μM for 24 h, (b) Ac-α-tubulin protein in PC-3 cells treated with various dimer compounds at 30 μM for 24 h, (c) LC-3 I, LC-3 II, and p62 proteins in PC-3 cells treated with various dimer compounds at 30 μM for 24 h, (d) PARP-1 and Caspase-3 proteins in PC-3 cells treated with various dimer compounds at 30 μM for 24 h, (e) p-BUBR1^S670 and p-BUBR1^T680 proteins in PC-3 cells treated with various dimer compounds at 30 μM for 24 h. Glyceraldehyde 3-phosphate dehydrogenase (GAPDH) was used as the loading control.
(§3) After compound treatment, the cells were harvested and centrifuged. […] The supernatants quantified by Bio-Rad protein assay kit (Bio-Rad Laboratories, Hercules, CA) were mixed with sample buffer (0.3 M Tris pH6.8, 10% SDS, 50% glycerol, 10% β-mercaptoethanol, and 0.02% bromophenol blue) and heated at 95 °C for 10 min. The protein (30 µg) was separated by electrophoresis in 8% or 12% SDS-PAGE, transferred to PVDF membranes, and detected with specific antibodies (1:1000 dilution for the first and 1:7000 for the second antibodies). The immunoreactive proteins were detected with an enhanced chemiluminescence detection kit (Amersham, Buckinghamshire, UK) and the images were captured by ChemiDoc™ MP System (Bio-Rad Laboratories, Hercules, CA).

[6] = test system: LC-3 II and p62; assay: Western blotting of autophagy proteins LC-3 II and p62 in PC-3 cells; format: cell-based, human; conditions: 30 μM, 24 h
Description: as §2, §3

[7] = biological target: T1, HDAC6; assay: Western blotting of HDAC6 protein (degradation) in PC-3 cells; format: cell-based; design: endogenous in cells; host or cells: PC-3 (ATCC); conditions: 30 μM, 24 h
Description: as §2, §3

Row | Compound | IC50 [1] [µM] | GI50 ([2]; PC-3 cells, SRB, 48 h) [µM] | GI50 ([3]; A549 cells, SRB, 48 h) [µM] | HDAC1/6 Selectivity [1] | IC50 [4] [µM] | GI50 ([2]; PC-3, 48 h) [µM] | GI50 ([3]; A549, 48 h) [µM] | apoptosis induction (PARP-1 cleavage, Caspase-3 activation) [5] | autophagy induction (LC-3 II level, p62 expression) [6] | HDAC6 degradation (Western blot) [7]
1 | O=C(NO)c1ccc(Cn2c(=O)n(CCCCCn3c(=O)c4ccccc4n(Cc4ccc(C(=O)NO)cc4)c3=O)c(=O)c3ccccc32)cc1 [Compound 8c, 4-{[3-(5-{1-[(4-Hydroxamophenyl)methyl]-2,4-dioxoquinazolin-3-yl}pentyl)-2,4-dioxoquinazolin-1-yl]methyl}benzohydroxamic acid] | 0.027 | > 30 | > 30 | – | – | – | – | – | – | –
2 | O=C(NO)c1ccc(Cn2c(=O)n(CCc3ccccc3)c(=O)c3cc(NCCOCCOCCNc4ccc5c(c4)c(=O)n(CCc4ccccc4)c(=O)n5Cc4ccc(C(=O)NO)cc4)ccc32)cc1 [Compound 4b, 4-[(6-{2-[2-(2-{1-[(4-Hydroxamophenyl)methyl]-2,4-dioxo-3-phenethylquinazolin-6-ylamino}ethoxy)ethoxy]ethylamino}-2,4-dioxo-3-phenethylquinazolin-1-yl)methyl]benzohydroxamic acid] | 0.816 | > 30 | > 30 | >12 | > 10 | – | – | – | – | –
3 | O=C(NO)c1ccc(Cn2c(=O)n(CCc3ccc(NCCOCCOCCNc4ccc(CCn5c(=O)c6ccccc6n(Cc6ccc(C(=O)NO)cc6)c5=O)cc4)cc3)c(=O)c3ccccc32)cc1 [Compound 6b, 4-{[3-(2-{4-[2–(2-{2-[4-(2-{1-[(4-Hydroxamophenyl)methyl]-2,4-dioxoquinazolin-3-yl}ethyl)phenylamino]ethoxy}ethoxy)ethylamino]phenyl}ethyl)-2,4-dioxoquinazolin-1-yl]methyl}benzohydroxamic acid] | 0.033 | 5.5 ± 0.7 | 9.1 ± 1.8 | 283 | 9.57 | – | – | did not induce apoptosis | signs of inducing autophagy | did not degrade HDAC6
4 | O=C(NO)c1ccc(Cn2c(=O)n(CCOCCOCCOCCn3c(=O)c4ccccc4n(Cc4ccc(C(=O)NO)cc4)c3=O)c(=O)c3ccccc32)cc1 [Compound 8a, 4-{[3-(11-{1-[(4-Hydroxamophenyl)methyl]-2,4-dioxoquinazolin-3-yl}-3,6,9-trioxaundecyl)-2,4-dioxoquinazolin-1-yl]methyl}benzohydroxamic acid] | 0.012 | 14.7 ± 1.3 | > 30 | 273 | 3.33 | – | – | induce apoptosis | strong autophagy induction | degradation of HDAC6 was observed; also recorded: induced HDAC6 auto-degradation
5 | O=C(NO)c1ccc(Cn2c(=O)n(CCc3ccccc3)c(=O)c3cc(NCCOCCOCCOCCNc4ccc5c(c4)c(=O)n(CCc4ccccc4)c(=O)n5Cc4ccc(C(=O)NO)cc4)ccc32)cc1 [Compound 4a, 4-{[6-(2-{2-[2-(2-{1-[(4-Hydroxamophenyl)methyl]-2,4-dioxo-3-phenethylquinazolin-6-ylamino}ethoxy)ethoxy]ethoxy}ethylamino)-2,4-dioxo-3-phenethylquinazolin-1-yl]methyl}benzohydroxamic acid] | 0.092 | > 30 | > 30 | – | – | – | – | – | – | –
6 | O=C(NO)c1ccc(Cn2c(=O)n(CCc3ccccc3)c(=O)c3cc(NCCCCCNc4ccc5c(c4)c(=O)n(CCc4ccccc4)c(=O)n5Cc4ccc(C(=O)NO)cc4)ccc32)cc1 [Compound 4c, 4-{[6-(5-{1-[(4-Hydroxamophenyl)methyl]-2,4-dioxo-3-phenethylquinazolin-6-ylamino}pentylamino)-2,4-dioxo-3-phenethylquinazolin-1-yl]methyl}benzohydroxamic acid] | 0.096 | 21.4 ± 0.3 | > 30 | – | – | – | – | – | – | –
7 | O=C(NO)c1ccc(Cn2c(=O)n(CCc3ccccc3)c(=O)c3ccccc32)cc1 [Compound 1] | – | – | – | 2790 | 11.2 | 3.5 | 8.8 | – | – | –
8 | O=C(NO)c1ccc(Cn2c(=O)n(CCOCCOCCn3c(=O)c4ccccc4n(Cc4ccc(C(=O)NO)cc4)c3=O)c(=O)c3ccccc32)cc1 [Compound 8b, 4-[(3-{2-[2-(2-{1-[(4-Hydroxamophenyl)methyl]-2,4-dioxoquinazolin-3-yl}ethoxy)ethoxy]ethyl}-2,4-dioxoquinazolin-1-yl)methyl]benzohydroxamic acid] | 0.002 | > 30 | > 30 | 1386 | 3.19 | – | – | – | – | –

More lines, main results first:

Row | IC50 [1] [µM] | GI50 ([2]; PC-3 cells, SRB, 48 h) [µM] | GI50 ([3]; A549 cells, SRB, 48 h) [µM] | HDAC1/6 Selectivity [1] | IC50 [4] [µM] | GI50 ([2]; PC-3, 48 h) [µM] | GI50 ([3]; A549, 48 h) [µM] | Compound | apoptosis induction (PARP-1 cleavage, Caspase-3 activation) [5] | autophagy induction (LC-3 II level, p62 expression) [6] | HDAC6 degradation (Western blot) [7]
9 | 0.003 | 11.3 ± 0.2 | 17.9 ± 0.4 | 326 | 1.27 | – | – | O=C(NO)c1ccc(CNc2ccccc2C(=O)NCCOCCOCCNC(=O)c2ccccc2NCc2ccc(C(=O)NO)cc2)cc1 [Compound 11b] | – | – | –
10 | 0.015 | 8.2 ± 0.1 | 6.6 ± 0.1 | 95 | 1.46 | – | – | O=C(NO)c1ccc(CNc2ccccc2C(=O)NCCCCCNC(=O)c2ccccc2NCc2ccc(C(=O)NO)cc2)cc1 [Compound 11c] | – | – | –
11 | 0.004 | 5.9 ± 0.7 | 17.3 ± 0.2 | 577 | 2.6 | – | – | O=C(NO)c1ccc(CNc2ccccc2C(=O)NCCOCCOCCOCCNC(=O)c2ccccc2NCc2ccc(C(=O)NO)cc2)cc1 [Compound 11a] | – | – | –
